Experimental data taken from patent US9244057B2, “Multiphase microarrays and uses thereof” (THE REGENTS OF THE UNIVERSITY OF MICHIGAN, priority 2010, dated 2016).

Test system: MDA-MB-231 breast cancer cells
Test: cell-exclusion migration assay (aqueous two-phase system patterning, 96-well plate)
Type: cell-based, human
Settings: MDA-MB-231 cells; for effect on motility/migration of cells (in words): blebbistatin 5-200 μM for 18 hrs, then another 12 hrs in culture medium before imaging
Description: 6.4% (w/w) solution of the DEX 500K phase was prepared in culture media and kept at 4° C. until use. The tip magazine of an automated liquid handler (CyBi-Well, CyBio) was loaded with 96 sterile 25 μl pipette tips (CyBio). 75 μl of the DEX solution was pipetted into each well of a 96-well microplate (Corning), which was then placed on the stage of the liquid handler. To load pipette tips with the DEX solution, the stage was slowly raised until the pipette tips were slightly inside the DEX solution. 10 μl of the DEX solution was aspirated into the tips at a rate of 5 μl/s. The loaded tips were brought within 200 μm of the bottom of the wells of an empty microplate and 0.8 μl of the DEX solution was dispensed onto the surface at a rate of 0.5 μl/s to form circular droplets. The microplate was kept in a culture hood for at least 24 hrs to allow the droplets to dry. Images of the dried droplets were captured using a bright-field microscope (Nikon, TS-200). The Feret diameters of the droplets were determined using the “Analyze Particles” function of ImageJ (NIH). Droplets whose Feret diameters were not within ˜1% of the desired mean diameter were excluded from use in the assay. The entire printing and drying process was performed in a sterile culture hood.
Three different human cancer cell lines were used: MDA-MB-231 breast cancer cells (ATCC) were cultured in DMEM medium supplemented with 10% heat-inactivated fetal bovine serum (HI-FBS, Invitrogen), 1% glutamine (Invitrogen), and 1% antibiotic. A549 lung cancer cells (ATCC) were cultured using F-12K medium (ATCC) supplemented with 10% HI-FBS and 1% antibiotic. PC-3 prostate cancer cells were maintained in DMEM supplemented with 10% HI-FBS and 1% antibiotic. Cells were maintained in a cell culture incubator at 37° C. with 5% CO2 and 95% humidity. When at desired confluence, cells were washed with PBS and Hank's-based enzyme-free cell dissociation buffer was added to the flask. Cells were incubated for 30 min and then collected and suspended in complete growth medium. After centrifuging down for 5 min at 4° C. and 1000 rpm, cells were resuspended in appropriate volume of the culture medium to give a density of 2×10^6 cells/ml.
5.0% (w/w) solution of the PEG 35K phase was prepared in culture media and kept at 4° C. until use. This solution was added to the cell suspension at a 1:1 (v/v) ratio to give a final PEG phase concentration of 2.5%. Prior to this step, cell suspension density was adjusted by addition of culture media to result in a final density of 4.5×10^4 MDA-MB-231 cells, 4.0×10^4 A549 cells, and 4.5×10^4 PC-3 cells after addition of the PEG-containing media. These cell densities were selected from preliminary experiments that evaluated the number of cells required to form a confluent monolayer per unit surface area. 80 μl of the resulting solution was added to each well of a 96-well plate, which was incubated at 37° C. with 5% CO2 and 95% humidity overnight (12 hrs). Then, the two-phase media was washed out and replaced with regular culture media. This was set as the time zero of the migration experiment.
After allowing MDA-MB-231 cells to spread and form a confluent monolayer around the cell excluded gaps, they were treated with (±)-blebbistatin at different concentrations in the range 5-200 μM or anti-cancer drugs paclitaxel, colchicine, and nocodazole in the concentration range of 1-1000 nM. Cells were incubated for 18 hrs in the presence of blebbistatin, washed with PBS once, and regular culture medium was added. Incubation continued for another 12 hrs before imaging. To study the effect of anti-cancer drugs, cells were incubated with each drug for 2 hrs, washed with PBS, and then supplied with culture medium. Imaging was performed after 30 hrs of incubation. Experiments were set in 30 replicates. All reagents were purchased from Sigma.
After migration experiments were complete, cells were stained with a 5 μM Calcein AM and the plates were incubated at 37° C. for 30 min. […]

[1] = 2 hr treatment, tested 1-1000 nM, imaging after 30 hrs

## CC(=O)O[C@H]1C(=O)[C@@]2(C)[C@H]([C@H](OC(=O)c3ccccc3)[C@]3(O)C[C@H](OC(=O)[C@H](O)[C@@H](NC(=O)c4ccccc4)c4ccccc4)C(C)=C1C3(C)C)[C@]1(OC(C)=O)CO[C@@H]1C[C@@H]2O [Paclitaxel, paclitaxel]
[1]
  concentration range showing potency for inhibiting cell motility: 0.01 to 0.1 µM

## COc1cc2c(c(OC)c1OC)-c1ccc(OC)c(=O)cc1[C@@H](NC(C)=O)CC2 [colchicine]
2 hr treatment, tested 1-1000 nM, imaging after 30 hrs, especially above 100 nM
  effect on cell motility (in words): reduced cell motility in a dose-dependent manner

## Cc1ccc2c(c1)C(=O)C1(O)CCN(c3ccccc3)C1=N2 (racemic) [blebbistatin, (±)-blebbistatin]
  effect on motility/migration of cells (in words): dose-dependent response
Listed as Blebbistatin
  effect on motility/migration of cells (in words): dose-dependent inhibition
Six concentrations 5-200 μM for 18 hrs, BioDataFit software, read-out: IC50 for inhibition of cell migration
  IC50: 31.8 µM

## COC(=O)Nc1nc2ccc(C(=O)c3cccs3)cc2[nH]1 [Nocodazole, nocodazole]
[1]
  reduction of migration: less than 20%
